Values of other authors in publication PMC9610729, “Anticholinesterase Activity of Selected Medicinal Plants from Navarra Region of Spain and a Detailed Phytochemical Investigation of Origanum vulgare L. ssp. vulgare” (Molecules, 2022).
Where two headings read alike, the source gives them in different places.

Experiments:
[1] = test system: AChE
[2] = test system: AChE; design: method as in PMID 35745206

| SMILES | AChE inhibition [1] | AChE inhibition [2] |
| --- | --- | --- |
| O=c1c(O)c(-c2ccc(O)cc2)oc2cc(O)cc(O)c12 [kaempferol] | efficient AChE inhibitors | – |
| O=c1cc(-c2ccc(O)c(O)c2)oc2cc(O)cc(O)c12 [luteolin] | to a lesser extent | – |
| COC(=O)c1cc(OC)c(O)c(OC)c1 [methyl syringinate] | – | best properties |
| O=c1c(O)c(-c2ccc(O)c(O)c2)oc2cc(O)cc(O)c12 [quercetin] | efficient AChE inhibitors | – |
| COc1cc(C(=O)O)cc(OC)c1O [Compound 7, Syringic acid] | – | high inhibition percentage |
